Several values for one entry are separate records, joined by “and”; a condition that tells them apart may be missing. Equal entries are not always repeated. Entries after “also recorded” stand apart in the source; their conditions may differ.
Tests used:
human C3b = molecular target: T1, human C3b (Homo sapiens, UniProt P01024); assay: SPR binding affinity and kinetic profile with immobilized C3b; conditions: 25 °C
T1 construct: purchased Complement Technology, Inc., Tyler, TX

[1] = Residence time in the vitreous after single intravitreal injection (WES and SPR competition assay); type: in vivo, cynomolgus monkeys
Procedure: To determine the residence time of mPEG(3 k)-Cp40, mPEG(1 k)-Cp40, Cp40-KK, and Cp40-KKK in the vitreous of cynomolgus macaques, these Cp40-based analogs were administered intravitreally (i.v.t.) to the animals after induction of light ketamine anesthesia (10-15 mg/kg, by intramuscular injection (i.m.)) and dilation of the pupils with tropicamide/phenylephrine ophthalmic solution (see Table 6 for study design).
For i.v.t. injection, the cynomolgus monkeys were anesthetized with a combination of ketamine (15-25 mg/kg, i.m.) and xylazine (2 mg/kg, i.m.) and the eye was cleaned with povidone-iodine solution. After application of oxybuprocaine hydrochloride solution (Benoxil® ophthalmic solution 0.4%) to the cornea as a local anesthetic, the Cp40-based analogs were administered to the animals by i.v.t. injection into either the right (G1, G3) or left (G2, G4) eye of each animal. Immediately following each injection, a single topical dose of 0.5% levofloxacin was administered. After i.v.t. injection of mPEG(3 k)-Cp40, mPEG(1 k)-Cp40, Cp40-KK, and Cp40-KKK, vitreous fluid samples (about 50 μL each) were withdrawn from Cp40-based analog-treated eyes on days 14, 28, 42, (G1, G2, G3, G4), 56, 73, 90 (G1, G2) (this was done either three times or six times). Samples were collected on ice and stored in a deep freezer (˜79.3 to −68.5° C.) until further analysis. […] Presence and concentration of the Cp40-based analogs was determined using either the simple western technology (WES, ProteinSimple, San Jose, CA), or surface plasmon resonance (SPR)-based real-time measurement of binding kinetics on a Cp40-KKK immobilized chip (see detailed methods below). Similar results with regard to the intravitreal residence time and concentration levels of the test compounds were obtained regardless of the quantification method selected.
To quantify the levels of all test compounds in vitreous samples collected at different time points following i.v.t. injection (see FIG. 15), WES analysis was performed on a WES instrument (ProteinSimple, San Jose, CA) using a 2 to 40 kDa Separation Module and Anti-Rabbit Detection Module according to the manufacturers' instructions. […] The resulting electropherograms were evaluated using the Compass software (ProteinSimple, San Jose, CA). The following criteria were used to discriminate low peptide signals from background: The peak signal-to-noise (S/N) ratio given by the software must be ≥10, and the peak height/baseline ratio (calculated manually from the peak height and baseline values given by the software) must be equal to or greater than 3. […] Shown in FIG. 15 is a representative standard curve generated using the WES system and bands obtained upon running pre-determined amounts of purified peptide spiked into rabbit vitreous samples. […]

purified human C3b = molecular target: T2, purified human C3b (Homo sapiens, UniProt P01024); assay: SPR C3b-binding activity of compound present in vitreous samples
T2 construct: purchased Complement Technology, Inc., Tyler, TX
Procedure: To confirm that the compound present in the NHP vitreous maintains C3b-binding activity, which is a prerequisite for eliciting its inhibitory action across all complement pathways, surface plasmon resonance (SPR) binding experiments were conducted. Briefly, for a positive binding control, serial dilutions of Cp40-KKK (16, 8, 4, and 2 nM) were added to rabbit vitreous samples and flowed onto a Biacore CM5 chip immobilized with purified human C3b (Complement Technology Inc, Tyler, TX) (see FIG. 19A). Next, vitreous samples were collected from a Cp40-KKK injected eye at day 14 post-injection and subjected to heat-inactivation at 95° C. for 5 min. Both heat-inactivated and non-heat-inactivated samples were flowed onto a CM5 chip immobilized with purified human C3b as indicated above (FIG. 19B).

physchem = conditions: pH 7.4, Conc. (mg/ml), solubility in PBS
[2] = Pharmacokinetics in NHP plasma after single s.c. injection, with plasma C3 levels
[3] = NHP vitreous, day 14 post-injection

T2 sequence (P01024 23-667 limits assumed): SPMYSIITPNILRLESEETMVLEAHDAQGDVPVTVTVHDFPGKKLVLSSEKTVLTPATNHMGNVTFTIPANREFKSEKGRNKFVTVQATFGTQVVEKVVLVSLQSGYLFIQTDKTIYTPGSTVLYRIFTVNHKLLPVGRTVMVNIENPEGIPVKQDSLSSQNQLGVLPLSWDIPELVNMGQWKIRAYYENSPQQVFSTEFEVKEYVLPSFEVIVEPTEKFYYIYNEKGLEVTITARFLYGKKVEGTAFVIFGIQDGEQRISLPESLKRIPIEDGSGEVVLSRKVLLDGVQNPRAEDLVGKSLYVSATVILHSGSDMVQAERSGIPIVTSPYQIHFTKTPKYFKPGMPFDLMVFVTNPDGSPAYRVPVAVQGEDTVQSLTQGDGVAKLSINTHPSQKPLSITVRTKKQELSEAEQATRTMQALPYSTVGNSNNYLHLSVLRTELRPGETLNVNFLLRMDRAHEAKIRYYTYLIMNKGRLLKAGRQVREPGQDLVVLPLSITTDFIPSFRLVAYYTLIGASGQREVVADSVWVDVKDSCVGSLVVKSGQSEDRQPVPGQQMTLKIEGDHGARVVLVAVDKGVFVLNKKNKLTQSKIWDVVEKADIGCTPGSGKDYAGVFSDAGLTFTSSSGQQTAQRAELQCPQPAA
T2 sequence (P01024 749-1663 partner limits assumed): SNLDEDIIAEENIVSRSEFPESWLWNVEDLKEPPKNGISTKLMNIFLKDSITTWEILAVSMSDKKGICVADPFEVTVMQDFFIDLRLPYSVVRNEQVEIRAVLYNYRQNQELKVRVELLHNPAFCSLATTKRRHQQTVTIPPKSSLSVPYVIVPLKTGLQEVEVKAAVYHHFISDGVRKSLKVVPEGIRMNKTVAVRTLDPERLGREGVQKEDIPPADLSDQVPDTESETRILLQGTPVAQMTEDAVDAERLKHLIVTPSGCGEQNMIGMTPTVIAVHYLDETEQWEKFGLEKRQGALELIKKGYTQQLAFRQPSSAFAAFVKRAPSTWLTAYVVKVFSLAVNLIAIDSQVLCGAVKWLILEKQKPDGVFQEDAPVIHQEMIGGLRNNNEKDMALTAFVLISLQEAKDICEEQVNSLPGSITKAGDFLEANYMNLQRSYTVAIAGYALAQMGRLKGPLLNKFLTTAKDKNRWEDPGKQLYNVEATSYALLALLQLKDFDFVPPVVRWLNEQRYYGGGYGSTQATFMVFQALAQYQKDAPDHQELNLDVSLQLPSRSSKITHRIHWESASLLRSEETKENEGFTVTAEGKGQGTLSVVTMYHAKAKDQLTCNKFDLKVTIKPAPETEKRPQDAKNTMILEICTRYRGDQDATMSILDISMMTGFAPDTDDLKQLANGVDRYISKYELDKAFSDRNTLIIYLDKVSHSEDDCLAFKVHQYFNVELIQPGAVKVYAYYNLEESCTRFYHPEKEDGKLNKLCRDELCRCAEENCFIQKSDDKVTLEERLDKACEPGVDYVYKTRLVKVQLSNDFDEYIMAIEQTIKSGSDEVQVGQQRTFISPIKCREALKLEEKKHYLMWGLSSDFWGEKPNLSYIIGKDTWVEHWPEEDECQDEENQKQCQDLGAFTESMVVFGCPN
T1 sequence (P01024 23-667 limits assumed): as the sequence (P01024 23-667 limits assumed) above
T1 sequence (P01024 749-1663 partner limits assumed): as the sequence (P01024 749-1663 partner limits assumed) above

kd, dissociation constant (human C3b; 1:1 Langmuir model): 1.24 ± 0.42 10^−3s^−1 | Kd (human C3b; KD=kd/ka, read-out: KD, equilibrium dissociation constant): 0.21 ± 0.09 nM | vitreous residence at C3 saturating levels ([1]; single i.v.t. 0.5 mg): ≥ 90 days | C3b-binding signal, heat-inactivated vitreous sample (purified human C3b; [3]): 10 relative units | C3b-binding signal, non-heat inactivated vitreous sample (purified human C3b; [3]): 2 relative units | solubility (physchem): > 100 mg/mL | Cp40-K fragment detectable in plasma ([2]; 4 h after s.c. injection, one monkey): ≤ 5 µM | decreased CL/F compared to Cp40 ([2]; single s.c. 2 mg/kg): ~3 fold | higher cmax than Cp40 ([2]; single s.c. 2 mg/kg): ~2 fold | increased AUC0-t compared to Cp40 ([2]; single s.c. 2 mg/kg): ~2.6 fold | plasma concentration of uncleaved Cp40-KKK at any time point ([2]; single s.c. 2 mg/kg, UPLC-ESI-MS, both animals): ≤ 2000 nM
SMILES: CC[C@H](C)[C@H](NC(=O)[C@H](N)Cc1ccc(O)cc1)C(=O)N[C@H]1CSSC[C@@H](C(=O)N(C)[C@H](C(=O)N[C@@H](CCCCN)C(=O)N[C@@H](CCCCN)C(=O)N[C@@H](CCCCN)C(N)=O)[C@@H](C)CC)NC(=O)[C@H](CCCNC(=N)N)NC(=O)[C@H](Cc2c[nH]cn2)NC(=O)[C@H](C)NC(=O)CN(C)C(=O)[C@H](Cc2c[nH]c3ccccc23)NC(=O)[C@H](CC(=O)O)NC(=O)[C@H](CCC(N)=O)NC(=O)[C@H](Cc2cn(C)c3ccccc23)NC(=O)[C@H](C(C)C)NC1=O [Cp40-KKK, DTyr-Ile-[Cys-Val-Trp(Me)-Gln-Asp-Trp-Sar-Ala-His-Arg-Cys]-mlle-Lys-Lys-Lys—NH2]
detection in vitreous over time ([1]; single i.v.t. 500 μg, days 14-90): detected even at day 90 post-treatment; also recorded: remained stable during the 73-day observation period | C3b binding in vitreous (purified human C3b; spiked rabbit vitreous or injected NHP eye): binds to C3b in a dose-dependent manner; also recorded: maintains its C3b-binding activity | in vivo Lys cleavage in plasma ([2]; after s.c. injection, UPLC-ESI-MS): one or two Lys residues are cleaved from Cp40-KKK in NHP plasma, but not the third; also recorded: no Cp40 was detected in any of the plasma samples; also recorded: almost completely metabolized into Cp40-KK and small amounts of Cp40-K | CL/F, apparent clearance ([2]; single s.c. 2 mg/kg, SUM for Lys analogs, 2 mg/kg): 2483 ((mg/kg)/(μM · h) and 2921 ((mg/kg)/(μM · h)

From patent US11884747B2, “Compstatin analogs with increased solubility and improved pharmacokinetic properties” (The Trustees of the University of Pennsylvania, priority 2018, dated 2024)
